Measurements: US20020059032A1, “Rational selection of putative peptides from identified nucleotide or peptide sequences” (priority 1999, published 2002)

What was measured:
rat brain membranes = assay: Binding test with rat brain membranes
Procedure: (§1) The membranes are placed in a buffer (50 mM of Tris-HCl, 5 mM of MgCl2 and 0.1 g/l of bacitracin) at the desired protein concentration (iodized CCK bond, 0.1 mg of protein/ml; iodized gastrin bond: 0.5 mg of proteins/ml). They are then incubated in the presence of a labelled ligand in a total volume of 500 μl (about 10 pM for the iodized CCK8, 20 pM for the iodized gastrin13), 50-80 minutes at 25° C., and in the presence or absence of cold agonists. The reaction is stopped with 3 ml of additional BSA buffer (20 g/l) at 4° C., the tubes are centrifuged at 10,000×g, the supernatant is drawn off and the radioactivity associated with the precipitate is evaluated with a γ counter.
(§2) Membrane Preparations of Different Rat Tissues and Organs
(§3) 1) The rats are sacrificed by rupturing their cervical vertebrae, and the different tissues are removed and washed several times in a large volume of NaCl at 9 per thousand.
(§4) The following steps are carried at 4° C.
(§5) 2) The tissues and organs are transferred, still separately, in a sucrose buffer containing:
(§6) They are then cut up carefully with the aid of fine scissors and crushed using an ultraturax apparatus. […]
(§7) 8) The protein content in the membrane suspensions is evaluated using a Bradford dosage device (BioRad, acording to the manufacturer's instructions). […]

Jurkat T cells = assay: Binding test with Jurkat T cells; parameters: species or system human
Procedure: Bonding of Radiolabelled Agonists to Jurkat T cells
Culture Conditions of the Cells of the Jurkat T Human Lymphocytic Line
The Jurkat cells are cultured in an RPMI 1640 medium supplemented with foetal calf serum (10% volume/volume) and antibiotics (50 U/ml of penicillin and 50 μg/ml of streptomycin) serum in a humid incubator at 37° C. under an atmosphere of 5% CO2 in air.
The cells are obtained by centrifugation (514 g, 5 minutes), then are washed twice in a standard medium containing: 98 mM of NaCl; 6 mM of KCl; 2.5 mM of NaH2PO4; 1.5 mM of CaCl2, 1 mM of MgCl2, 5 mM of Na-pyruvate; 5 mM of Na-fumarate; 5 mM of Na-glutamate; 2 mM of glutamine; 11.5 mM of glucose; 24.5 mM of Hepes (N-[2-hydroxyethyl]piperazine-N′-[2-ethane sulfonic acid]); 0.5 g/l of bacitracin; 0.1 g/l of soya bean trypsin inhibitor, pH 7.4
Experiments with agonist bonds labelled with iodine 125 (about 50 picomolars) are carried out at 37° C. under agitation for 45-60 minutes in a final volume of 0.5 ml of standard medium containing 2×10^6 cells (4×10^6 cells/ml) and in the presence or absence of competitors. The non-specific bond is evaluated in the presence of a micromolar concentration of cold homologous peptide.

[1] = system: different rat organ membranes; assay: Binding test with different rat organ membranes
Procedure: as §1, §2, §3, §4, §5, §6, §7

HeLa cells = assay: Binding test with HeLa cells
Procedure: Studies of the Bonding of Labelled Agonists on the HeLa Cell Line
The cells are cultured in a DMEM medium supplemented with 10% foetal calf serum, 0.5% of antibiotics (penicillin/streptomycin) and 0.5% of glutamine.
24 to 48 hours before experimentation, the cells are replicated in 24-well plates with approximately 100,000 cells per well and per ml.
The bonding studies are carried out with a BindH buffer
For the experiment, the medium is removed and the cells washed twice with 1 ml of buffer. The reaction medium (500 μl) containing the labelled agonist is added into each well in the presence or absence of the cold homologous agonist and the plates are incubated for one hour at 37° C.
The reaction is stopped by removal of the reaction volume and the wells are rinsed twice with 1 ml of BindH with 20% BSA.
The cells are lysed with 500 μl of 1N soda for 20 minutes at ambient temperature and the radioactivity associated with the lysate is evaluated using a gamma counter.

Substance	IC50 (rat brain membranes)	Results, binding test with Jurkat T cells (positive/negative) (Jurkat T cells)	Results, binding test with different rat organ membranes (positive/negative) [1]	IC50 (HeLa cells)
YERNRQAAAANPENSRGK [Example 6, H-YERNRQAAAANPENSRGK-NH2]	90 µM	negative	–	–
ELGRGPGPPLPERGA [Example 5, H-ELGRGPGPPLPERGA-NH2]	90 µM	negative	–	–
GQDSIEPVPGQK [Example 1, H-GQDSIEPVPGQK-NH2]	–	negative	negative	–
YFKIDNVKKARVQWA [Example 3, H-YFKIDNVKKARVQWA-NH2]	–	–	–	50 µM
PLEPSGG [Example 4, H-PLEPSGG-NH2]	–	–	negative	–
